Results: patent US20210246122A1, “Triazine Compounds and Uses Thereof” (Aduro Biotech, Inc., priority 2018, published 2021)
pIC50: −log10 of the molar value.

biological target: T1, Human cGAS amino acids 155-522 (Homo sapiens, UniProt Q8N884); assay: cGAS activity assay (DNA-activated cGAS, remaining ATP measured by Kinase-Glo Max luciferase assay); type: biochemical; conditions: 300 nM purified cGAS, 1 μM dsDNA, 250 μM ATP, 100 μM GTP, 37° C. for 1.25 hours
T1 construct: hexahistidine tag (N, cleaved yes); made in house; host or cells: E. coli BL21 DE3 Rosetta 2
T1 sequence (Q8N884 157-522): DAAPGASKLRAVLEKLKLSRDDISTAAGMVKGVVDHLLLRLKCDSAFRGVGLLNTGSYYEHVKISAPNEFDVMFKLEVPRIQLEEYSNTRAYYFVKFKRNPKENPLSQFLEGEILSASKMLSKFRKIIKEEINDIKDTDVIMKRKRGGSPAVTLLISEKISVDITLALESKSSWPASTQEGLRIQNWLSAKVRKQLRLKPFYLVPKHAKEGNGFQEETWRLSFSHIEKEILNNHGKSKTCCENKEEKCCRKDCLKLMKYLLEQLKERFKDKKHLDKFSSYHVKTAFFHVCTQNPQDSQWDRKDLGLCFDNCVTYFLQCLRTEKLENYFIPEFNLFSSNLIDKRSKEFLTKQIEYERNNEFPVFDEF
Procedure: IC50 values were determined as follows:
Human cGAS sequence encoding amino acids 155-522 was cloned into a pET (EMD Millipore) based expression plasmid. The resulting construct contained a tandem N-terminal hexahistidine tag, maltose binding protein fusion followed by a tobacco etch virus protease cleavable linker preceding cGAS amino acids 155-522.
Construct sequence: Amino acids 155-522, Human cGAS
Protein was expressed and purified from E. coli BL21 DE3 Rosetta 2 (EMD Millipore) cells using standard techniques. Cells were grown in 2× yeast extract tryptone medium and expression was initiated via the addition of isopropyl β-D-1-thiogalactopyranoside. Expression proceeded overnight at 18° C. Cells were harvested by centrifugation and subsequently lysed via sonication. Insoluble fraction was removed by centrifugation. Maltose binding protein (MBP) fusion proteins were purified on a dextrin sepharose column (GE Healthcare) and the MBP tag was removed using tobacco etch virus protease overnight during dialysis. Protein was further purified on a heparin column (GE Healthcare) and eluted using a NaCl gradient. Column fraction were pooled and further purified on a Superdex 75 gel filtration column (GE Healthcare). Protein was quantified using 280 nm absorbance. Protein was then flash frozen in liquid nitrogen and stored at −80° C. until use.
Potential antagonists were diluted in 100% dimethyl sulfoxide and added to the reaction. Final dimethyl sulfoxide concentration was 5%. The compounds were tested from 1 μM with either 3- or 4-fold serial dilutions down to 0.000051 or 0.000004 μM respectively.
Two complementary DNA oligos (IDT DNA) were annealed by slow cooling from 95° C. The resulting double stranded DNA was used to activate cGAS.
Reactions were performed at 37° C. for 1.25 hours. Reaction buffer: 20 mM Tris HCl pH 9, 100 mM NaCl, 5 mM MgCl2, 0.1 mg/ml bovine gamma globulin, 250 μM adenosine triphosphate, 100 μM guanosine triphosphate, 0.5 mM Tris(2-carboxyethyl)phosphine hydrochloride, 1 μM double stranded DNA and 300 nM purified cGAS protein.
Reactions were stopped and ATP levels in the reaction were measured using a luciferase based assay. Promega Kinase-Glo Max Assay. Luminescence was measured on a plate reader (Molecular Devices). Values were normalized to control wells lacking compound.

Row | Compound | pIC50
1 | COCCOCCNC(=O)[C@H](Cc1ccc(C#N)cc1)Nc1nc(NCc2nc3cc(F)ccc3[nH]2)nc(Nc2cccc(CN3CCN(C(=O)c4nccnc4OC)CC3)c2)n1 [TA1029, (S)-3-(4-cyanophenyl)-2-((4-(((5-fluoro-1H-benzo[d]imidazol-2-yl)methyl)amino)-6-((3-((4-(3-methoxypyrazine-2-carbonyl)piperazin-1-yl)methyl)phenyl)amino)-1,3,5-triazin-2-yl)amino)-N-(2-(2-methoxyethoxy)ethyl)propanamide] | < 3.60
2 | COC(=O)[C@H](Cc1ccc(C#N)cc1)Nc1nc(NCc2nc3cc(Cl)ccc3[nH]2)nc(Nc2cccc(CN3CCN(C=O)CC3)c2)n1 [TA1062, methyl (S)-2-((4-(((5-chloro-1H-benzo[d]imidazol-2-yl)methyl)amino)-6-((3-((4-formylpiperazin-1-yl)methyl)phenyl)amino)-1,3,5-triazin-2-yl)amino)-3-(4-cyanophenyl)propanoate] | 3.60 to 4.70
3 | COC(=O)[C@H](Cc1ccc(C#N)cc1)Nc1nc(NCc2nc3cc(F)ccc3[nH]2)nc(Nc2cccc(CN3CCN(C(=O)C4CCN(S(C)(=O)=O)CC4)CC3)c2)n1 [TA1079, methyl (S)-3-(4-cyanophenyl)-2-((4-(((5-fluoro-1H-benzo[d]imidazol-2-yl)methyl)amino)-6-((3-((4-(1-(methylsulfonyl)piperidine-4-carbonyl)piperazin-1-yl)methyl)phenyl)amino)-1,3,5-triazin-2-yl)amino)propanoate] | < 3.60
4 | COC(=O)[C@H](Cc1ccc(C#N)cc1)Nc1nc(Nc2cccc(CN3CCN(C(=O)c4nccnc4O)CC3)c2)nc(OC)n1 [TA1074, methyl (S)-3-(4-cyanophenyl)-2-((4-((3-((4-(3-hydroxypyrazine-2-carbonyl)piperazin-1-yl)methyl)phenyl)amino)-6-methoxy-1,3,5-triazin-2-yl)amino)propanoate] | < 3.60
5 | COC(=O)[C@H](Cc1ccc(C#N)cc1)Nc1nc(Nc2cccc(CN3CCN(C(=O)c4cnccn4)CC3)c2)nc(N(C)CCc2nc3ccc(OC)cc3[nH]2)n1 [TA1054, methyl (S)-3-(4-cyanophenyl)-2-((4-((2-(6-methoxy-1H-benzo[d]imidazol-2-yl)ethyl)(methyl)amino)-6-((3-((4-(pyrazine-2-carbonyl)piperazin-1-yl)methyl)phenyl)amino)-1,3,5-triazin-2-yl)amino)propanoate] | < 3.60
6 | COC(=O)[C@H](Cc1ccc(C#N)cc1)Nc1nc(NCc2nc3cc(F)ccc3[nH]2)nc(Nc2cccc(CN3CCN(C(=O)c4nccnc4OC)CC3)c2)n1 [TA1078, methyl (S)-3-(4-cyanophenyl)-2-((4-(((5-fluoro-1H-benzo[d]imidazol-2-yl)methyl)amino)-6-((3-((4-(3-methoxypyrazine-2-carbonyl)piperazin-1-yl)methyl)phenyl)amino)-1,3,5-triazin-2-yl)amino)propanoate] | < 3.60
7 | COC(=O)[C@H](Cc1ccc(C#N)cc1)Nc1nc(Nc2cccc(CN3CCN(C(=O)c4csnn4)CC3)c2)nc(N(C)CCc2nc3ccc(OC)cc3[nH]2)n1 [TA1055, methyl (S)-2-((4-((3-((4-(1,2,3-thiadiazole-4-carbonyl)piperazin-1-yl)methyl)phenyl)amino)-6-((2-(6-methoxy-1H-benzo[d]imidazol-2-yl)ethyl)(methyl)amino)-1,3,5-triazin-2-yl)amino)-3-(4-cyanophenyl)propanoate] | < 3.60
8 | CN(C)C(=O)[C@H](Cc1ccc(C#N)cc1)Nc1ncnc(Nc2cccc(CN3CCN(C(=O)OC(C)(C)C)CC3)c2)n1 [TA1010, tert-butyl (S)-4-(3-((4-((3-(4-cyanophenyl)-1-(dimethylamino)-1-oxopropan-2-yl)amino)-1,3,5-triazin-2-yl)amino)benzyl)piperazine-1-carboxylate] | < 3.60

The remaining lines, values ahead:

Row | pIC50 | Compound
9 | 3.60 to 4.70 | CN(C)C(=O)[C@H](Cc1ccc(C#N)cc1)Nc1nc(NCc2nc3cc(F)ccc3[nH]2)nc(Nc2cccc(CN3CCN(C=O)CC3)c2)n1 [TA1016, (S)-3-(4-cyanophenyl)-2-((4-(((5-fluoro-1H-benzo[d]imidazol-2-yl)methyl)amino)-6-((3-((4-formylpiperazin-1-yl)methyl)phenyl)amino)-1,3,5-triazin-2-yl)amino)-N,N-dimethylpropanamide]
10 | < 3.60 | COC(=O)[C@H](Cc1ccc(C#N)cc1)Nc1nc(NCc2ccccc2)nc(Nc2cccc(CN3CCNCC3)c2)n1 [TA1049, methyl (S)-2-((4-(benzylamino)-6-((3-(piperazin-1-ylmethyl)phenyl)amino)-1,3,5-triazin-2-yl)amino)-3-(4-cyanophenyl)propanoate]
11 | < 3.60 | COCCNC(=O)[C@H](Cc1ccc(C#N)cc1)Nc1nc(NCc2nc3cc(F)ccc3[nH]2)nc(Nc2cccc(CN3CCNCC3)c2)n1 [TA1017, (S)-3-(4-cyanophenyl)-2-((4-(((5-fluoro-1H-benzo[d]imidazol-2-yl)methyl)amino)-6-((3-(piperazin-1-ylmethyl)phenyl)amino)-1,3,5-triazin-2-yl)amino)-N-(2-methoxyethyl)propanamide]
12 | < 3.60 | COC(=O)[C@H](Cc1ccc(C#N)cc1)Nc1nc(NCc2nc3cc(Cl)ccc3[nH]2)nc(Nc2cccc(CN3CCN(C(=O)c4cccc(-n5cccn5)c4)CC3)c2)n1 [TA1060, methyl (S)-2-((4-((3-((4-(3-(1H-pyrazol-1-yl)benzoyl)piperazin-1-yl)methyl)phenyl)amino)-6-(((5-chloro-1H-benzo[d]imidazol-2-yl)methyl)amino)-1,3,5-triazin-2-yl)amino)-3-(4-cyanophenyl)propanoate]
13 | < 3.60 | COC(=O)[C@H](Cc1ccc(C#N)cc1)Nc1nc(Cl)nc(Nc2cccc(CN3CCN(C(=O)OC(C)(C)C)CC3)c2)n1 [TA1002, tert-butyl (S)-4-(3-((4-chloro-6-((3-(4-cyanophenyl)-1-methoxy-1-oxopropan-2-yl)amino)-1,3,5-triazin-2-yl)amino)benzyl)piperazine-1-carboxylate]
14 | < 3.60 | COC(=O)[C@H](Cc1ccc(C#N)cc1)Nc1nc(NCc2nnn[nH]2)nc(Nc2cccc(CN3CCN(C(=O)c4nccnc4O)CC3)c2)n1 [TA1069, methyl (S)-2-((4-(((1H-tetrazol-5-yl)methyl)amino)-6-((3-((4-(3-hydroxypyrazine-2-carbonyl)piperazin-1-yl)methyl)phenyl)amino)-1,3,5-triazin-2-yl)amino)-3-(4-cyanophenyl)propanoate]
15 | < 3.60 | COC(=O)[C@H](Cc1ccc(C#N)cc1)Nc1ncnc(Nc2cccc(CN3CCN(C(=O)c4nccnc4O)CC3)c2)n1 [TA1026, methyl (S)-3-(4-cyanophenyl)-2-((4-((3-((4-(3-hydroxypyrazine-2-carbonyl)piperazin-1-yl)methyl)phenyl)amino)-1,3,5-triazin-2-yl)amino)propanoate]
16 | < 3.60 | COC(=O)[C@H](Cc1ccc(C#N)cc1)Nc1nc(Nc2cccc(CN3CCN(C(=O)[C@@H]4CCCO4)CC3)c2)nc(N(C)CCc2nc3ccc(OC)cc3[nH]2)n1 [TA1056, methyl (S)-3-(4-cyanophenyl)-2-((4-((2-(6-methoxy-1H-benzo[d]imidazol-2-yl)ethyl)(methyl)amino)-6-((3-((4-((S)-tetrahydrofuran-2-carbonyl)piperazin-1-yl)methyl)phenyl)amino)-1,3,5-triazin-2-yl)amino)propanoate]
17 | < 3.60 | CN(C)C(=O)[C@H](Cc1ccc(C#N)cc1)Nc1nc(NCc2nc3cc(F)ccc3[nH]2)nc(Nc2cccc(CN3CCN(C(=O)OC(C)(C)C)CC3)c2)n1 [TA1036, tert-butyl (S)-4-(3-((4-((3-(4-cyanophenyl)-1-(dimethylamino)-1-oxopropan-2-yl)amino)-6-(((5-fluoro-1H-benzo[d]imidazol-2-yl)methyl)amino)-1,3,5-triazin-2-yl)amino)benzyl)piperazine-1-carboxylate]
18 | > 4.70 | COC(=O)[C@H](CC1CCCCC1)Nc1nc(NCc2nc3cc(F)ccc3[nH]2)nc(Nc2cccc(CN3CCN(C(=O)c4nccnc4O)CC3)c2)n1 [TA1072, methyl (S)-3-cyclohexyl-2-((4-(((5-fluoro-1H-benzo[d]imidazol-2-yl)methyl)amino)-6-((3-((4-(3-hydroxypyrazine-2-carbonyl)piperazin-1-yl)methyl)phenyl)amino)-1,3,5-triazin-2-yl)amino)propanoate]
19 | 3.60 to 4.70 | COC(=O)[C@H](Cc1ccc(C#N)cc1)Nc1nc(NCc2nc3cc(Cl)ccc3[nH]2)nc(Nc2cccc(CN3CCNCC3)c2)n1 [TA1058, methyl (S)-2-((4-(((5-chloro-1H-benzo[d]imidazol-2-yl)methyl)amino)-6-((3-(piperazin-1-ylmethyl)phenyl)amino)-1,3,5-triazin-2-yl)amino)-3-(4-cyanophenyl)propanoate]
